Values after ≈ are worked out from the molar mass of the structure shown. Read-outs that look alike come from different tables or passages of the source.
Legend:
Format in all cases: cell-based
[1] = test system: EMRSA 16; assay: MIC assay, EMRSA 16; conditions: Staphylococcus aureus
Description: (§1) The antimicrobial activity of a selection of compounds were evaluated in a Gram-negative, Gram-positive and multi-resistant bacteria using the standard minimum inhibitory concentration (MIC) assay for an overnight (16-20 hour) incubation period. Commercially marketed antibiotics (Table 3) were used as positive controls during the study.
(§2) Mueller-Hinton broth (MH Broth) (Sigma-Aldrich; Millipore, cat. no. 70192) and Mueller-Hinton agar (MHA) (Sigma-Aldrich; Millipore, cat. no. 70191) were prepared as per manufacturer's instructions and sterilized by autoclaving. Approximately 20 mL of MHA was poured onto 15×100 mm petri dishes and allowed to set. Agar plates were then stored in plastic bags in an inverted position at 4° C.
(§3) Bacterial strains were provided in the form of a glycerol stock, stored at −80° C. For the purpose of preparation of bacterial suspension, appropriate strains were removed from −80° C. storage onto dry ice and not allowed to freeze-thaw.
(§4) Stock solutions of 16, 45 and 73 were provided in DMSO at 1.28 mg/mL concentration. From this stock solution, working solutions of the desired concentration were prepared by diluting with MHB.
(§5) MIC assay methodology was adapted from previously published work.
(§6) Bacterial isolate to be tested was streaked onto a nutrient-rich MH agar plate and incubated overnight at 37° C. in order to obtain single colonies.
(§7) After overnight incubation, single colonies with the same morphological appearance were chosen from the agar plate. These were touched using a sterile loop and transferred into a tube containing 10 mL of a MH broth. They were then mixed using vortex mixer and incubated at 35-37° C. in a shaker at 200 r.p.m. overnight.
(§8) Determination of OD600 and cfu/mL count OD600 (the optical density of a sample measured at a wavelength of 600 nm) of the overnight culture was measured. Because of the loss of linearity at OD600 values […], it was necessary to dilute the sample until the OD600 value was below 1.0. For all tested bacteria, a dilution of 1:10 was appropriate (100 μL in 900 μL broth).
(§9) The overnight culture was then diluted 1:100 using sterile tubes and MH broth (dilution: 10^−2). Serial dilution was then performed six times until dilution of 10^−8 was reached. 100 μL of dilutions 10^−7 and 10^−8 were plated onto MH agar plates in triplicate using a sterile cell spreader and incubated overnight at 37° C.
(§10) After overnight incubation, colonies on plates were counted and cfu per mL calculated. The following formula was applied: […]
(§11) After overnight incubation, the OD600 was measured and the overnight culture was diluted accordingly to obtain 1×10^8 cfu/mL. […]
(§12) The 96-well plates were read using a SpectraMax plate reader at an absorbance of 600 nm. […]

[2] = test system: Klebsiella pneumoniae KP4631; assay: MIC assay, Klebsiella pneumoniae KP4631
Description: as §1, §2, §3, §4, §5, §6, §7, §8, §9, §10, §11, §12

[3] = test system: E. coli K12; assay: MIC assay, E. coli K12; conditions: Escherichia coli, K12, E. coli K12 (Gram-negative), overnight (16-20 hour) incubation
Description: as §1, §2, §3, §4, §5, §6, §7, §8, §9, §10
For the generation of overnight cultures to be used for preparation of the bacterial suspension for MIC tests, a single colony of bacteria was selected using a sterile loop and a sterile tube with MH broth was inoculated followed by overnight incubation at […] in a shaker set to 200 r.p.m.
After overnight incubation, the OD600 was measured and the overnight culture was diluted accordingly to obtain 1×10^8 cfu/mL.
Free payload dilutions were prepared as per Table 4.
96-well sterile microtiter plates were used for MIC assay. The plate was filled with the respective free payload or positive control antibiotic concentrations in triplicate. 100 μL of broth was pipetted in the sterility control well (SC, column 12) and 50 μL in the growth control well (GC, column 11).
1×10^8 cfu/mL bacterial suspension was diluted 1:100 and 50 μL added to each well apart from SC. […]
as §12

[4] = test system: A431 (Skin); assay: In vitro cytotoxicity, MTT assay, A431; conditions: Homo sapiens, A-431; A431 (Skin), MTT, 72 hour incubation; read-out: Cytotoxicity
Description: (§13) The in vitro cytotoxicity of a selection of compounds were evaluated in a panel of cell lines using the standard MTT assay for a 72 hour incubation period (Table 2). Free payloads produced cytotoxicities in the nanomolar range.
(§14) Tumor cell lines were maintained in RPMI1640 medium supplemented with 10% heat-inactivated fetal bovine serum, 2 mM L-glutamine and 1 mM sodium pyruvate. 1800 cells per well were seeded in a volume of 180 μl in a 96-well flat bottom polystyrene plate. The cells were allowed to adhere overnight at 37° C. in a CO2 incubator. Ligands were initially formulated in DMSO, and stocks stored at −80° C. They were then further formulated at lox concentration in RPMI1640 medium. 20 ul of diluted samples were added into each treatment well. On each plate, blank wells with no cells, and untreated wells containing cells, were included. Plates were then cultured at 37° C. in a CO2 incubator for 72 hrs. Cytotoxicity was evaluated using a tetrazolium salt-based assay, the MTT assay. After 72 hours, the supernatant was removed from each well and 200 μl of a sterile filtered 500 μg/ml MTT solution in water added to each well. The plates were then incubated at 37° C. in a CO2 incubator for 4 hrs. The supernatant was then removed and the formazan crystals formed solubilized by adding 150 μl of DMSO to each well. The plate was then read on a plate reader at 540 nm, and percentage cell survival calculated as follows: ((mean absorbance treated wells at concentration x−mean absorbance blank wells)+(mean absorbance untreated wells at concentration x−mean absorbance blank wells))×100. Data were plotted as concentration in nM vs. % cell survival in Microsoft Excel, and IC50 values (concentration where cell survival is reduced by a half) were determined from the graph.

[5] = test system: U138-MG (Glioblastoma); assay: In vitro cytotoxicity, MTT assay, U138-MG; conditions: Homo sapiens; U138-MG (Glioblastoma), MTT, 72 hour incubation; read-out: Cytotoxicity
Description: as §13, §14

[6] = test system: REH (ALL); assay: In vitro cytotoxicity, MTT assay, REH; conditions: REH (ALL), MTT, 72 hour incubation; read-out: Cytotoxicity
Description: as §13, §14

Molecule	MIC [1]	MIC ([2]; Klebsiella pneumoniae, KP4631)	MIC [3]	other results
COC(=O)c1cc(-c2ccc(NC(=O)c3cc(NC(=O)CCCOc4cc5c(cc4OC)C(=O)N4CCCC[C@H]4CN5)cn3C)cc2)cn1C [Compound 45, Methyl (S)-4-(4-(4-(4-((2-methoxy-12-oxo-5,6,6a,7,8,9,10,12-octahydrobenzo[e]pyrido[1,2-a][1,4]diazepin-3-yl)oxy)butanamido)-1-methyl-1H-pyrrole-2-carboxamido)phenyl)-1-methyl-1H-pyrrole-2-carboxylate]	0.5 µg/mL (≈ 0.732 µM)	> 128 µg/mL	> 128 µg/mL	
COc1cc2c(cc1OCCCC(=O)Nc1cc(C(=O)Nc3ccc(-c4cc(C(=O)Nc5ccncc5)n(C)c4)cc3)n(C)c1)NC[C@@H]1CCCCN1C2=O [Compound 73, (S)-4-(4-((2-Methoxy-12-oxo-5,6,6a,7,8,9,10,12-octahydrobenzo[e]pyrido-[1,2-a][1,4]diazepin-3-yl)oxy)butanamido)-1-methyl-N-(4-(1-methyl-5-(pyridin-4-ylcarbamoyl)-1H-pyrrol-3-yl)phenyl)-1H-pyrrole-2-carboxamide]	0.5 µg/mL (≈ 0.671 µM)	4 to 8 µg/mL (≈ 5.37 to 10.7 µM)	2 µg/mL (≈ 2.69 µM)	IC50 [4]: 144 nM; IC50 [5]: 301 nM; IC50 [6]: 37.5 nM
NC[C@H]1O[C@H](O[C@H]2[C@H](O)[C@@H](O[C@H]3O[C@H](CO)[C@@H](O)[C@H](N)[C@H]3O)[C@H](N)C[C@@H]2N)[C@H](O)[C@@H](O)[C@@H]1O [Kanamycin, reference compound]				MIC ([3]; read-out: MIC): 2 to 4 µg/mL (≈ 4.13 to 8.26 µM)
CN[C@H](CC(C)C)C(=O)N[C@H]1C(=O)N[C@@H](CC(N)=O)C(=O)N[C@H]2C(=O)N[C@H]3C(=O)N[C@H](C(=O)N[C@H](C(=O)O)c4cc(O)cc(O)c4-c4cc3ccc4O)[C@H](O)c3ccc(c(Cl)c3)Oc3cc2cc(c3O[C@@H]2O[C@H](CO)[C@@H](O)[C@H](O)[C@H]2O[C@H]2C[C@](C)(N)[C@H](O)[C@H](C)O2)Oc2ccc(cc2Cl)[C@H]1O [Vancomycin, reference compound]				MIC ([1]; EMRSA 16 (Gram-positive), overnight (16-20 hour) incubation, read-out: MIC): 1 µg/mL (≈ 0.69 µM)
Gentamicin [reference compound]				MIC ([2]; Klebsiella pneumoniae KP4631 (multi-resistant), overnight (16-20 hour) incubation): 1 to 2 µg/mL

Reference: patent publication US20210371413A1, “POLYCYCLIC AMIDES AS CYTOTOXIC AGENTS” (FEMTOGENIX LIMITED, priority 2018, published 2021)
